Measurements: patent US20060058346A1, “Novel enantiomers of etrahydroisoquinoline derivatives and theirpharmaceutically acceptable salts, their preparations and pharmaceutical compositions” (priority 2002, published 2006)
Read-outs that look alike come from different tables or passages of the source.

How the values were obtained:
[1] = tested on: left auricle muscle; assay: Contractile force of left auricle muscle excised from rats; parameters: species or system rat; details: for Contractile Force of Auricle Muscles: vehicle control:100%
Description: (§1) Immediately after Sprague-Dawley rats (female or male) were anaesthetized with pentobarbital sodium (50 mg/kg, i.m.), the thorax was opened to excise the heart. The heart was submerged in Krebs solution, and left auricle muscle and right auricle muscle were then isolated. The left auricle muscle was placed in an organ bath for recording of contractile force, and applied with electrical field stimulation (voltage 10% higher than threshold voltage, 1 Hz frequency, 5 ms duration). In the case of right auricle muscle, which contracts spontaneously, the number of continuous beats was recorded. In this experiment, to measure contractile fore of the two auricle muscles, the organ bath was warmed to 37° C., and as a physiological solution, Krebs solution (119.8 mM NaCl, 4.6 mM KCl, 2.5 mM CaCl2, 1.2 mM MgCl2, 25 mM NaHCO3, 1.2 mM KH2PO4, 10 mM glucose, 1 mM EDTA, pH 7.4) was used. The Krebs solution (pH 7.4) was continuously saturated with a gas mixture of 95% O2 and 5% CO2. The auricle muscle was under a tension of 1 g, and Krebs solution was exchanged with fresh solution at intervals of 20 minutes while equilibrium was maintained during a recording period of 60 minutes.

[2] = tested on: right auricle muscle; assay: Heart rates (beats) of right auricle muscle excised from rats; parameters: species or system rat; details: for Heart Rates of Auricle Muscles: vehicle control:100%
Description: as §1

[3] = tested on: RAW 264.7 macrophage cells; assay: Nitric oxide production in macrophage cell stimulated by LPS (Griess); format: cell-based; details: for NO production by LPS in macrophage cell: LPS 1 μg/ml; for inhibition of production of NO: LPS-stimulated macrophage cell
Description: RAW 264.7 macrophage cells were plated on 100 mm culture dishes at a density of 1-2×10^5 cells. Thereafter, the said macrophage cell was incubated in DMEM medium containing 10% fetal calf serum (heat-inactivated), 100 U/ml penicillin, and […] streptomycin in a CO2 incubator. The said macrophage cell was incubated therein confluently. The said incubated macrophage cells were transferred to serum-free DMEM medium, and further incubated therein for about 24 hours. Thereafter, macrophage cells were stimulated with LPS (1 μg/ml) for about 8 hours. (In this progress, experimental group was divided into two groups, group to which the compound was administered, and group to which the compound was not.) Then, nitrite quantification was achieved by performing calorimetric reaction for produced nitrite with Griess reagent and then measuring absorbance at 550 nm, while using NaNO2 as a standard.

[4] = tested on: rat PRP; assay: Inhibition of platelet aggregation in rat PRP; format: cell-based; details: for IC50: Platelet, rat PRP; for inhibitory effect on epinephrine-induced platelet aggregation, times as strong as R-enantiomer: S versus R; for inhibitory effect on epinephrine-induced platelet aggregation, times as strong as racemic mixture: S versus racemic mixture
Description: Male rat (weighing 200±20 g) was anaesthetized with ether. The blood (nine volumes) was collected from heart using a plastic syringe containing 2.2% sodium citrate (one volume). The collected blood was centrifuged at 200×g for 10 minutes to give supernatant platelet-rich plasma (PRP). The residue was centrifuged again at 700×g for 30 minutes, giving platelet-poor plasma (PPP) for experiment. We used a platelet analyzer to count the number of platelet of the PRP. PRP was diluted with physiological saline solution to prepare solution containing platelets in an amount of 400-450×10^6/ml. The inhibitory effects of the compound represented by formulas 3 to 8 was evaluated by platelet aggregation analyzer, and the inhibitory effect of each compound is given as % below. That is, after PRP was incubated for 3 minutes at 37° C., the compounds or a carrier was added thereto, and after 1 min, platelet aggregation-inducing agent such as ADP, collagen, arachidonic acid (AA), U46619 or epinephrine was added thereto, followed by investigation of turbidity caused by aggregation of platelets. % Inhibition=A−B/A×100 [arithmetic formula 1] • (A: Platelet aggregation rate in group treated with an aggregation-inducing agent; • B: Platelet aggregation rate in group treated with both an aggregation-inducing agent and the enantiomers simultaneously)

[5] = tested on: rat with DIC and MOF induced by endotoxin; assay: Endotoxin-induced DIC and multiple organ failure in rat; format: in vivo; details: for serum level of FDP compared with R-configuration: 10 mg/kg, FIG. 4
Description: Rats (Crj:CD(SD); 250±20 g) were used to test sample. Before the compound was administered, the rat was not fed. The compound was orally administered one time per day for two days in an amount of 10 mg˜25 mg/10 ml/kg/day. Distilled water (control group and LPS group) or enantiomer was administered to the rat repeatedly. After one hour, rat was anaesthetized with intramuscular injection of 50 mg/kg of pentobarbital. […] Thereafter, 50 mg/kg of pentobarbital was injected at 2 hour to the rat by intramuscular injection. Therefore, the rat was anaesthetized for all the experiment and operation.
The blood (2 ml for FDP and 6 ml for other variables) was collected from abdominal artery using a plastic syringe, into glass tube containing soy bean trypsin inhibitor and Bothrops atrox venom to measure FDP and into plastic tube containing 2.2% sodium citrate (1/10, volume/volume). The aggregated blood was centrifuged at 1200×g for 5 minutes two times. Before measurement of FDP, the supernatant was stored at freezer for at least 12 hours. Citrated blood was centrifuged at 2000×g for 30 minutes. The supernatant was used for measurement of fibrinogen and PT or APTT time. The aggregated blood collected in glass tube was disposed at the room temperature for 30 min, centrifuged to give the serum for measurement of AST and BUN.
Platelet from total citrated blood was counted by using automatic platelet counter (PLT-4, Texas International Lab.) PT or APTT time was measured by Beckton Dickenson BBL Fibrosystem (Coctkeysville, USA). FDP analysis was accomplished by using Thrombo-wellcotest kit. The said analysis was accomplished by up and down dilution method semi-quantitatively. Measurement of AST and BUN was accomplished by using Autobiochemical analyzer (Hitach 747, Japan).

[6] = tested on: LPS-injected rat; assay: Survival in LPS-injected rat; format: in vivo; details: for survival at 30 mg/kg than 15 mg/kg: LPS 20 mg/kg
Description: Rats (25˜30 g, ICR), originated from NIH cancer institute (Bethesda, Md., USA) were purchased from Korea Test Animal Corp. (Unsung, Korea). 20 mg/kg of LPS was injected to abdominal cavity of the rat. Thereafter, survival was observed every 24 hours for seven days, to investigate effect of enantiomer on the survival in LPS-injected rat. The compound represented by formula 3 to 8 was administered 30 min before the LPS injection.

[7] = ADP 2 − 5 × 10^−6 M, read-out: IC50 platelet aggregation, ADP
[8] = U46619 1.5 × 10^−6 M with threshold collagen, read-out: IC50 platelet aggregation, U46619
[9] = arachidonic acid 1 − 4 × 10^−5 M with threshold collagen, read-out: IC50 platelet aggregation, AA
[10] = collagen 2 − 5 × 10^−6 g/ml, read-out: IC50 platelet aggregation, collagen
[11] = epinephrine 1 − 4 × 10^−6 M with threshold collagen, read-out: IC50 platelet aggregation, Epinephrine
[12] = 15 mg/kg compound 30 min before LPS 20 mg/kg i.p.
[13] = 30 mg/kg compound 30 min before LPS 20 mg/kg i.p.

Row | Structure (SMILES) | Contractile Force of Auricle Muscles ([1]; 1 × 10^−4 M) [%] | Contractile Force of Auricle Muscles ([1]; 1 × 10^−5 M) [%] | Contractile Force of Auricle Muscles ([1]; 1 × 10^−6 M) [%] | Contractile Force of Auricle Muscles ([1]; 1 × 10^−7 M) [%] | Contractile Force of Auricle Muscles ([1]; 3 × 10^−5 M) [%] | Contractile Force of Auricle Muscles ([1]; 3 × 10^−6 M) [%] | Contractile Force of Auricle Muscles ([1]; 3 × 10^−7 M) [%] | Heart Rates of Auricle Muscles ([2]; 1 × 10^−4 M) [%] | Heart Rates of Auricle Muscles ([2]; 1 × 10^−5 M) [%] | Heart Rates of Auricle Muscles ([2]; 1 × 10^−6 M) [%] | Heart Rates of Auricle Muscles ([2]; 1 × 10^−7 M) [%] | Heart Rates of Auricle Muscles ([2]; 3 × 10^−5 M) [%] | Heart Rates of Auricle Muscles ([2]; 3 × 10^−6 M) [%] | Heart Rates of Auricle Muscles ([2]; 3 × 10^−7 M) [%] | NO production by LPS in macrophage cell ([3]; compound 10 μM) [µM] | NO production by LPS in macrophage cell ([3]; compound 50 μM) [µM] | NO production by LPS in macrophage cell ([3]; compound 100 μM) [µM] | IC50 [4, 7] [µM] | IC50 [4, 8] [µM] | IC50 [4, 9] [µM] | other results
1 | Oc1ccc(C[C@@H]2NCCc3cc(O)c(O)cc32)cc1 [Formula 3, (S)-6,7-Dihydroxy-1-(p-hydroxyphenylmethyl)-1,2,3,4-tetrahydroisoquinoline] | 300 | 300 | 250 | 140 | 300 | 290 | 180 | 250 | 180 | 145 | 130 | 200 | 150 | 140 | 30.5 | 22.3 | 18.2 | > 1000 | 25 | 9.1 | IC50 [4, 10]: 450 µM; IC50 [4, 11]: 1.6 µM; inhibitory effect on epinephrine-induced platelet aggregation, times as strong as R-enantiomer [4]: about nine times as strong; inhibitory effect on epinephrine-induced platelet aggregation, times as strong as racemic mixture [4]: about five times as strong; inhibition of platelet aggregation induced by ADP ([4]; even at the concentration as high as 1×10^−3 M): did not inhibit; serum level of FDP compared with R-configuration [5]: lower; platelet concentration compared with R-configuration ([5]; FIG. 2): higher; serum level of AST ([5]; LPS 15 mg/kg i.v. 4 hours): at the normal level; serum level of BUN, formula 3 versus formula 4 ([5]; LPS 15 mg/kg i.v. 4 hours): no difference; survival after six days [6, 12]: 80%; survival at 30 mg/kg than 15 mg/kg [6]: increased
2 | Oc1cc2c(cc1O)[C@@H](Cc1ccc3ccccc3c1)NCC2 [Formula 8, (R)-6,7-Dihydroxy-1-(β-naphthylmethyl)-1,2,3,4-tetrahydroisoquinoline] | 105 | 100 | 100 | 100 | 105 | 100 | 100 | 105 | 105 | 100 | 100 | 105 | 100 | 100 | 46 | 42 | 40 | 540 | 49 | 7.9 | effect on contractile force of auricle muscles [1]: no effect; effect on heart rates of auricle muscles [2]: no effect; inhibition of production of NO [3]: never or slightly inhibited production of NO; IC50 [4, 10]: 150 µM; IC50 [4, 11]: 15 µM; platelet concentration compared with LPS only ([5]; FIG. 2): higher; survival after six days [6, 13]: 72%
3 | Oc1cc2c(cc1O)[C@H](Cc1cccc3ccccc13)NCC2 [Formula 5] | 700 | 630 | 450 | 200 | 660 | 550 | 280 | 190 | 180 | 175 | 150 | 187 | 178 | 162.5 | 21.3 | 14.8 | 14.2 | 240 | 16 | 5.6 | effect on contractile force of auricle muscles [1]: strongly increased; effect on heart rates of auricle muscles [2]: strongly stimulated; inhibition of production of NO [3]: strongly inhibited production of NO; IC50 [4, 10]: 69 µM; IC50 [4, 11]: 0.38 µM; inhibitory effect on epinephrine-induced platelet aggregation, times as strong as R-enantiomer [4]: about six times as strong; inhibitory effect on epinephrine-induced platelet aggregation, times as strong as racemic mixture [4]: about five times as strong; platelet concentration, higher than with R-configuration ([5]; 10 mg/kg oral, LPS 15 mg/kg i.v. 4 hours): 20%; serum level of FDP compared with R-configuration [5]: lower; survival after six days [6, 12]: 100%; survival after six days [6, 13]: 100%; survival at 30 mg/kg than 15 mg/kg [6]: increased
